The values below come from patent US8735140B2, “Preservation and composition of bioprocess algae for production of lipids, seedstock, and feed” (Kuehnle AgroSystems, Inc., priority 2008, dated 2014).

The test system of this experiment is algae strains KAS503, KAS633 and KAS635. Nature of the experiment: Sorbitol treatment prior to alginate embedding, cell recovery after preservation. The class given is cell-based. As for the experimental part:
In one specific embodiment, cells are treated with trehalose solution at various concentrations and left overnight. Cells are centrifuged the next day to remove the trehalose solution, and then re-suspended in sterile 0.5M D-sorbitol (Fisher Scientific […]) dissolved in salt or fresh-water medium as required by specific algae species. Cells are left to stand for 2 hours with mild agitation. After 2 hours, cells are centrifuged again to remove the 0.5M sorbitol solution and re-suspended in fresh or salt-water medium. Cells are counted after the re-suspension. Cell viability is determined by comparing the cell growth in control set with the experimental set. Specifically, cell counts are performed on all samples. The averaged density value (in cells per ml) for all the cultures after treatment is defined as “rejuvenation cell count.” In some samples, the percent recovery of cells immediately after storage is also determined. The formulae are illustrated as follows: Growth=(rejuvenation cell count)/(initial cell count) Cell recovery after storage=(cell density after storage)/(initial cell density), with controls set at 100% cell recovery. Viability after storage and rejuvenation in nutrient medium=(Growth of treatment)/(Growth of control)×100%, with controls set at 100% viability

As for `OC[C@@H](O)[C@@H](O)[C@H](O)[C@@H](O)CO` [sorbitol, D-sorbitol], the “Cell recovery after preservation” value is listed as “increases cell recovery”.
